Measurements: patent US20090137811A1 (published 2009)
Where “and” joins values, the source holds several entries; their conditions need not be identical. Equal entries are not always repeated.

In the case of `COc1cc2c(cc1OC)C(=O)C(C(=O)c1ccncc1)C2` (stereo not shown), the melting point is reported as 204 to 207 °C and 203 to 206 °C.
